Here are results for four cell lines from the supplement of paper PMC10307832.

Common to all, as to test: relative viability (nuclei count vs DMSO), 5 days (fraction); higher = more cells survive
Compound in the assay “CAP-232 + Pemetrexed”: C[C@H]([C@@H](C(=O)N)NC(=O)[C@@H]1CSSC[C@@H](C(=O)N[C@H](C(=O)N[C@@H](C(=O)N[C@H](C(=O)N1)CCCCN)CC2=CNC3=CC=CC=C32)CC4=CC=C(C=C4)O)NC(=O)[C@@H](CC5=CC=CC=C5)N)O [CAP-232] + Nc1nc2[nH]cc(CCc3ccc(C(=O)N[C@@H](CCC(=O)O)C(=O)O)cc3)c2c(=O)[nH]1 [Pemetrexed] (partner 0.2 µM)
In a few lines:
(§1)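 After 5 days of treatment, lung cancer cells in 1536-well plates were fixed and stained in a single step (final 0.05% Triton X-100, 1% formaldehyde, 1 ug/ml Hoechst) and their nuclei counted on 4× images. Treatment had been applied by pin tool the day after seeding as one drug alone or as a fixed anchor-drug dose with five library-drug doses (not always all listed) in √10 steps. Relative viability is the nuclei count of treated wells divided by that of vehicle wells, and values are medians of duplicate plates.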

Compound in the assay “CAP-232 + Decitabine”: C[C@H]([C@@H](C(=O)N)NC(=O)[C@@H]1CSSC[C@@H](C(=O)N[C@H](C(=O)N[C@@H](C(=O)N[C@H](C(=O)N1)CCCCN)CC2=CNC3=CC=CC=C32)CC4=CC=C(C=C4)O)NC(=O)[C@@H](CC5=CC=CC=C5)N)O [CAP-232] + Nc1ncn([C@H]2C[C@H](O)[C@@H](CO)O2)c(=O)n1 [Decitabine] (partner 2 µM)
Summed up:
as §1

Compound in the assay “CAP-232 + Bortezomib”: C[C@H]([C@@H](C(=O)N)NC(=O)[C@@H]1CSSC[C@@H](C(=O)N[C@H](C(=O)N[C@@H](C(=O)N[C@H](C(=O)N1)CCCCN)CC2=CNC3=CC=CC=C32)CC4=CC=C(C=C4)O)NC(=O)[C@@H](CC5=CC=CC=C5)N)O [CAP-232] + CC(C)C[C@H](NC(=O)[C@H](Cc1ccccc1)NC(=O)c1cnccn1)B(O)O [Bortezomib] (partner 0.002 µM)
Summed up:
as §1

Compound in the assay “CAP-232 + Crizotinib”: C[C@H]([C@@H](C(=O)N)NC(=O)[C@@H]1CSSC[C@@H](C(=O)N[C@H](C(=O)N[C@@H](C(=O)N[C@H](C(=O)N1)CCCCN)CC2=CNC3=CC=CC=C32)CC4=CC=C(C=C4)O)NC(=O)[C@@H](CC5=CC=CC=C5)N)O [CAP-232] + C[C@@H](Oc1cc(-c2cnn(C3CCNCC3)c2)cnc1N)c1c(Cl)ccc(F)c1Cl [Crizotinib] (partner 1 µM)
In a few lines: as §1

Compound in the assay “CAP-232 + OSI-027”: C[C@H]([C@@H](C(=O)N)NC(=O)[C@@H]1CSSC[C@@H](C(=O)N[C@H](C(=O)N[C@@H](C(=O)N[C@H](C(=O)N1)CCCCN)CC2=CNC3=CC=CC=C32)CC4=CC=C(C=C4)O)NC(=O)[C@@H](CC5=CC=CC=C5)N)O [CAP-232] + COc1cccc2cc(-c3nc([C@H]4CC[C@H](C(=O)O)CC4)n4ncnc(N)c34)[nH]c12 [OSI-027] (partner 0.5 µM)
In a few lines: as §1

For NCI-H460, the relative viability in the assay with CAP-232 + Pemetrexed (first compound 0.4 µM) turned out to be 0.0632; in the assay with CAP-232 + Pemetrexed (first compound 1.265 µM), 0.0566; with CAP-232 + Pemetrexed (first compound 4 µM), 0.0556; with CAP-232 + Pemetrexed (first compound 12.65 µM), 0.0558; in the assay with CAP-232 + Decitabine (first compound 0.4 µM) it was 0.496; in the assay with CAP-232 + Decitabine (first compound 1.265 µM) it was 0.475. For the same cell line, the relative viability in the assay with CAP-232 + Decitabine (first compound 4 µM) worked out at 0.541; in the assay with CAP-232 + Decitabine (first compound 12.65 µM), 0.17; with CAP-232 + Bortezomib (first compound 0.4 µM), 1.49; with CAP-232 + Bortezomib (first compound 1.265 µM), 1.17; in the assay with CAP-232 + Bortezomib (first compound 4 µM), 1.22; with CAP-232 + Bortezomib (first compound 12.65 µM), 0.812. Further, the relative viability with CAP-232 + Crizotinib (first compound 0.4 µM) is 0.924; with CAP-232 + Crizotinib (first compound 1.265 µM), 1.1; with CAP-232 + Crizotinib (first compound 4 µM), 1.05; with CAP-232 + Crizotinib (first compound 12.65 µM), 0.534; in the assay with CAP-232 + OSI-027 (first compound 0.4 µM), 0.767; with CAP-232 + OSI-027 (first compound 1.265 µM), 0.739. Moreover, the relative viability with CAP-232 + OSI-027 (first compound 4 µM) was 0.825; with CAP-232 + OSI-027 (first compound 12.65 µM), 0.275.
Regarding NCI-H520, the relative viability is 0.581 in the assay with CAP-232 + Pemetrexed (first compound 0.4 µM); 0.651 with CAP-232 + Pemetrexed (first compound 1.265 µM); 0.673 with CAP-232 + Pemetrexed (first compound 4 µM); 0.634 with CAP-232 + Pemetrexed (first compound 12.65 µM); 0.496 in the assay with CAP-232 + Decitabine (first compound 0.4 µM); 0.509 with CAP-232 + Decitabine (first compound 1.265 µM). Besides, the relative viability in the assay with CAP-232 + Decitabine (first compound 4 µM) was found to be 0.518; in the assay with CAP-232 + Decitabine (first compound 12.65 µM), 0.416; with CAP-232 + Bortezomib (first compound 0.4 µM), 0.71; with CAP-232 + Bortezomib (first compound 1.265 µM), 0.508; in the assay with CAP-232 + Bortezomib (first compound 4 µM), 0.611; in the assay with CAP-232 + Bortezomib (first compound 12.65 µM), 0.438. The relative viability with CAP-232 + Crizotinib (first compound 0.4 µM) was 0.822; with CAP-232 + Crizotinib (first compound 1.265 µM) it was 0.66; in the assay with CAP-232 + Crizotinib (first compound 4 µM), 0.888; with CAP-232 + Crizotinib (first compound 12.65 µM), 0.56; with CAP-232 + OSI-027 (first compound 0.4 µM), 0.258; in the assay with CAP-232 + OSI-027 (first compound 1.265 µM) it was 0.31. Also, the results for the relative viability with CAP-232 + OSI-027 (first compound 4 µM) and with CAP-232 + OSI-027 (first compound 12.65 µM) were 0.304 and 0.3, respectively.
On to NCI-H596, for which the relative viability was 0.562 with CAP-232 + Pemetrexed (first compound 0.4 µM); 0.49 with CAP-232 + Pemetrexed (first compound 1.265 µM); 0.439 with CAP-232 + Pemetrexed (first compound 4 µM); 0.448 in the assay with CAP-232 + Pemetrexed (first compound 12.65 µM); 1.03 with CAP-232 + Decitabine (first compound 0.4 µM); 0.971 with CAP-232 + Decitabine (first compound 1.265 µM). The relative viability with CAP-232 + Decitabine (first compound 4 µM) was 0.69; in the assay with CAP-232 + Decitabine (first compound 12.65 µM) it was 0.965; with CAP-232 + Bortezomib (first compound 0.4 µM) it was 1.14; with CAP-232 + Bortezomib (first compound 1.265 µM), 1.2; in the assay with CAP-232 + Bortezomib (first compound 4 µM), 0.701; with CAP-232 + Bortezomib (first compound 12.65 µM), 0.925. For the same cell line, the relative viability with CAP-232 + Crizotinib (first compound 0.4 µM) turned out to be 1.15; with CAP-232 + Crizotinib (first compound 1.265 µM), 0.988; with CAP-232 + Crizotinib (first compound 4 µM) it was 0.89; with CAP-232 + Crizotinib (first compound 12.65 µM) it was 1.05; in the assay with CAP-232 + OSI-027 (first compound 0.4 µM) it was 0.767; with CAP-232 + OSI-027 (first compound 1.265 µM) it was 0.726. Also, the relative viability in the assay with CAP-232 + OSI-027 (first compound 4 µM) amounted to 0.884; in the assay with CAP-232 + OSI-027 (first compound 12.65 µM), 0.633.
On to NCI-H647, for which the relative viability in the assay with CAP-232 + Pemetrexed (first compound 0.4 µM) came out at 0.153; in the assay with CAP-232 + Pemetrexed (first compound 1.265 µM) it was 0.184; with CAP-232 + Pemetrexed (first compound 4 µM), 0.182; with CAP-232 + Pemetrexed (first compound 12.65 µM) it was 0.158; with CAP-232 + Decitabine (first compound 0.4 µM) it was 0.308; in the assay with CAP-232 + Decitabine (first compound 1.265 µM), 0.372. Also, the relative viability with CAP-232 + Decitabine (first compound 4 µM) was 0.318; with CAP-232 + Decitabine (first compound 12.65 µM), 0.297; with CAP-232 + Bortezomib (first compound 0.4 µM) it was 0.938; in the assay with CAP-232 + Bortezomib (first compound 1.265 µM), 0.807; with CAP-232 + Bortezomib (first compound 4 µM), 0.931; with CAP-232 + Bortezomib (first compound 12.65 µM), 0.562. In addition, the relative viability stood at 1.28 with CAP-232 + Crizotinib (first compound 0.4 µM); 1.01 in the assay with CAP-232 + Crizotinib (first compound 1.265 µM); 1.05 in the assay with CAP-232 + Crizotinib (first compound 4 µM); 0.871 with CAP-232 + Crizotinib (first compound 12.65 µM); 0.576 in the assay with CAP-232 + OSI-027 (first compound 0.4 µM); 0.775 in the assay with CAP-232 + OSI-027 (first compound 1.265 µM). Also, the relative viability came to 0.739 in the assay with CAP-232 + OSI-027 (first compound 4 µM) and 0.577 with CAP-232 + OSI-027 (first compound 12.65 µM).
